What follows are compounds tested against T1, recombinant sEH (Homo sapiens, UniProt P34913) (assay: biochemical screening assay for inhibition of soluble epoxide hydrolase (fluorometric, Phome substrate)).
T1 construct: made in house; host or cells: Sf9 insect cells
T1 sequence (P34913 1-555): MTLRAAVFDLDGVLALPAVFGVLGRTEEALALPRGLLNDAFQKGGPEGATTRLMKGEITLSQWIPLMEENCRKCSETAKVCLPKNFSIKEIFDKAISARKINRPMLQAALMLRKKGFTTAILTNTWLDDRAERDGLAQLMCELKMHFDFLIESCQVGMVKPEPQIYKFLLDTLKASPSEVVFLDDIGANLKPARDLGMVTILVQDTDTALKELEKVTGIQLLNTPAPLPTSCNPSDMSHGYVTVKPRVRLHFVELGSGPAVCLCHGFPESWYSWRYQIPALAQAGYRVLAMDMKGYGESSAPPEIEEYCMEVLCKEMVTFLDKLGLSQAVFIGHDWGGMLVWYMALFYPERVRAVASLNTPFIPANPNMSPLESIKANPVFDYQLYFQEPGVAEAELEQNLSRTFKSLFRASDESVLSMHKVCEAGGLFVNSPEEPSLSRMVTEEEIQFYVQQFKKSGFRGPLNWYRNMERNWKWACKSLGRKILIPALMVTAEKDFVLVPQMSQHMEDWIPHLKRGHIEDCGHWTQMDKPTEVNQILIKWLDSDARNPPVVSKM
Summary of the method: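 Reading fluorescence before substrate addition and after completion corrected for autofluorescence. Reaction: 5 μM Phome, 2 nM recombinant human sEH (Sf9-expressed), compound 0.0001–10 μM, 25 mM Hepes with 0.01% albumin, 15 min pre-incubation then 60 min at 30 °C; IC50 derived from % inhibition.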

Point of comparison: `Cc1ncccc1O[C@H]1CO[C@H]2[C@@H]1OC[C@@H]2NC(=O)N[C@H]1C[C@H]2C[C@@H]([C@@H]1C)C2(C)C` [Example 186, 1-[(3S,3aR,6S,6aS)-6-(2-Methyl-pyridin-3-yloxy)-hexahydro-furo[3,2-b]furan-3-yl]-3-((1S,2S,3S,5R)-2,6,6-trimethyl-bicyclo[3.1.1]hept-3-yl)-urea], IC50 2 nM. Against it:
- Cc1ncccc1O[C@H]1CO[C@H]2[C@@H]1OC[C@@H]2NC(=O)NCC1(O)CCCCC1 [Example 182, 1-(1-Hydroxy-cyclohexylmethyl)-3-[(3S,3aR,6S,6aS)-6-(2-methyl-pyridin-3-yloxy)-hexahydro-furo[3,2-b]furan-3-yl]-urea] — 48-fold higher, 96 nM
- COCC(C)NC(=O)N[C@H]1CO[C@H]2[C@@H]1OC[C@@H]2Oc1cccnc1C (stereo partly drawn) [Example 183, 1-(2-Methoxy-1-methyl-ethyl)-3-[(3S,3aR,6S,6aS)-6-(2-methyl-pyridin-3-yloxy)-hexahydro-furo[3,2-b]furan-3-yl]-urea] — 420-fold higher, 846 nM
- Cc1ncccc1O[C@H]1CO[C@H]2[C@@H]1OC[C@@H]2NC(=O)NCC1(c2ccccc2)CCCC1 [Example 184, 1-[(3S,3aR,6S,6aS)-6-(2-Methyl-pyridin-3-yloxy)-hexahydro-furo[3,2-b]furan-3-yl]-3-(1-phenyl-cyclopentylmethyl)-urea] — 3-fold higher, 6 nM
- Cc1ncccc1O[C@H]1CO[C@H]2[C@@H]1OC[C@@H]2NC(=O)NC(C)(C)Cc1ccc(F)cc1 [Example 185, 1-[2-(4-Fluoro-phenyl)-1,1-dimethyl-ethyl]-3-[(3S,3aR,6S,6aS)-6-(2-methyl-pyridin-3-yloxy)-hexahydro-furo[3,2-b]furan-3-yl]-urea] — 14-fold higher, 29 nM
- Cc1ncccc1O[C@H]1CO[C@H]2[C@@H]1OC[C@@H]2NC(=O)NC(C)c1ccc(S(C)(=O)=O)cc1 (stereo partly drawn) [Example 187, 1-[1-(4-Methanesulfonyl-phenyl)-ethyl]-3-[(3S,3aR,6S,6aS)-6-(2-methyl-pyridin-3-yloxy)-hexahydro-furo[3,2-b]furan-3-yl]-urea] — 22-fold higher, 44 nM
- Cc1ncccc1O[C@H]1CO[C@H]2[C@@H]1OC[C@@H]2NC(=O)NCc1ccccc1OC(F)F [Example 188, 1-(2-Difluoromethoxy-benzyl)-3-[(3S,3aR,6S,6aS)-6-(2-methyl-pyridin-3-yloxy)-hexahydro-furo[3,2-b]furan-3-yl]-urea] — 2-fold lower, 1 nM
- Cc1ncccc1O[C@H]1CO[C@H]2[C@@H]1OC[C@@H]2NC(=O)NCc1ccc(OC(F)F)cc1 [Example 189, 1-(4-Difluoromethoxy-benzyl)-3-[(3S,3aR,6S,6aS)-6-(2-methyl-pyridin-3-yloxy)-hexahydro-furo[3,2-b]furan-3-yl]-urea] — 12-fold higher, 23 nM
- Cc1cnc(CNC(=O)N[C@H]2CO[C@H]3[C@@H]2OC[C@@H]3Oc2cccnc2C)cn1 [Example 190, 1-(5-Methyl-pyrazin-2-ylmethyl)-3-[(3S,3aR,6S,6aS)-6-(2-methyl-pyridin-3-yloxy)-hexahydro-furo[3,2-b]furan-3-yl]-urea] — 240-fold higher, 475 nM
- Cc1ncccc1O[C@H]1CO[C@H]2[C@@H]1OC[C@@H]2NC(=O)NCC1COC(C)(C)O1 (stereo partly drawn) [Example 191, 1-(2,2-Dimethyl-[1,3]dioxolan-4-ylmethyl)-3-[(3S,3aR,6S,6aS)-6-(2-methyl-pyridin-3-yloxy)-hexahydro-furo[3,2-b]furan-3-yl]-urea] — 240-fold higher, 489 nM
- Cc1ncccc1O[C@H]1CO[C@H]2[C@@H]1OC[C@@H]2NC(=O)NCc1cnn(C)c1 [Example 192, 1-(1-Methyl-1H-pyrazol-4-ylmethyl)-3-[(3S,3aR,6S,6aS)-6-(2-methyl-pyridin-3-yloxy)-hexahydro-furo[3,2-b]furan-3-yl]-urea] — 860-fold higher, 1730 nM
- Cc1ncccc1OC1COC2C(NC(=O)NC34CC5CC(CC(O)(C5)C3)C4)COC12 [Example 193, 1-((1R,3S,5R,7S)-3-Hydroxy-adamantan-1-yl)-3-[(3S,3aR,6S,6aS)-6-(2-methyl-pyridin-3-yloxy)-hexahydro-furo[3,2-b]furan-3-yl]-urea] — 26-fold higher, 51 nM
- Cc1ncccc1O[C@H]1CO[C@H]2[C@@H]1OC[C@@H]2NC(=O)NCC1COCCO1 (stereo partly drawn) [Example 194, 1-[1,4]Dioxan-2-ylmethyl-3-[(3S,3aR,6S,6aS)-6-(2-methyl-pyridin-3-yloxy)-hexahydro-furo[3,2-b]furan-3-yl]-urea] — 740-fold higher, 1470 nM
- Cc1ncccc1OC1COC2C(NC(=O)NC3C4(C)CCC(C4)C3(C)C)COC12 [Example 195, 1-[(2R,3aS,5S,6S)-6-(2-Methyl-pyridin-3-yloxy)-hexahydro-furo[3,2-b]furan-3-yl]-3-((1S,4R)-1,3,3-tri-methyl-bicyclo[2.2.1]hept-2-yl)-urea] — 28-fold higher, 56 nM
- Cc1ncccc1O[C@H]1CO[C@H]2[C@@H]1OC[C@@H]2NC(=O)NCC1COc2ccccc2O1 (stereo partly drawn) [Example 196, 1-(2,3-Dihydro-benzo[1,4]dioxin-2-ylmethyl)-3-[(3S,3aR,6S,6aS)-6-(2-methyl-pyridin-3-yloxy)-hexahydro-furo[3,2-b]furan-3-yl]-urea] — 13-fold higher, 26 nM
- Cc1ncccc1O[C@H]1CO[C@H]2[C@@H]1OC[C@@H]2NC(=O)NC(C)(C)CN1CCOCC1 [Example 197, 1-(1,1-Dimethyl-2-morpholin-4-yl-ethyl)-3-[(3S,3aR,6S,6aS)-6-(2-methyl-pyridin-3-yloxy)-hexahydro-furo[3,2-b]furan-3-yl]-urea] — 570-fold higher, 1140 nM
- Cc1ncccc1O[C@H]1CO[C@H]2[C@@H]1OC[C@@H]2NC(=O)NCc1cn(C)cn1 [Example 198, 1-(1-Methyl-1H-imidazol-4-ylmethyl)-3-[(3S,3aR,6S,6aS)-6-(2-methyl-pyridin-3-yloxy)-hexahydro-furo[3,2-b]furan-3-yl]-urea] — 500-fold higher, 997 nM
- Cc1csc(CNC(=O)N[C@H]2CO[C@H]3[C@@H]2OC[C@@H]3Oc2cccnc2C)n1 [Example 199, 1-[(3S,3aR,6S,6aS)-6-(2-Methyl-pyridin-3-yloxy)-hexahydro-furo[3,2-b]furan-3-yl]-3-(4-methyl-thiazol-2-ylmethyl)-urea] — 1000-fold higher, 2070 nM
- Cc1ncccc1O[C@H]1CO[C@H]2[C@@H]1OC[C@@H]2NC(=O)NCc1cccc2c1OCCO2 [Example 200, 1-(2,3-Dihydro-benzo[1,4]dioxin-5-ylmethyl)-3-[(3S,3aR,6S,6aS)-6-(2-methyl-pyridin-3-yloxy)-hexahydro-furo[3,2-b]furan-3-yl]-urea] — 44-fold higher, 88 nM
- Cc1ncccc1O[C@H]1CO[C@H]2[C@@H]1OC[C@@H]2NC(=O)NCC1CCC(=O)N1 (stereo partly drawn) [Example 201, 1-[(3S,3aR,6S,6aS)-6-(2-Methyl-pyridin-3-yloxy)-hexahydro-furo[3,2-b]furan-3-yl]-3-(5-oxo-pyrrolidin-2-ylmethyl)-urea] — 2900-fold higher, 5790 nM
- COc1cccc(CNC(=O)N[C@H]2CO[C@H]3[C@@H]2OC[C@@H]3Oc2cccnc2C)n1 [Example 202, 1-(6-Methoxy-pyridin-2-ylmethyl)-3-[(3S,3aR,6S,6aS)-6-(2-methyl-pyridin-3-yloxy)-hexahydro-furo[3,2-b]furan-3-yl]-urea] — 170-fold higher, 345 nM
- COc1cc(CNC(=O)N[C@H]2CO[C@H]3[C@@H]2OC[C@@H]3Oc2cccnc2C)ccn1 [Example 203, 1-(2-Methoxy-pyridin-4-ylmethyl)-3-[(3S,3aR,6S,6aS)-6-(2-methyl-pyridin-3-yloxy)-hexahydro-furo[3,2-b]furan-3-yl]-urea] — 14-fold higher, 28 nM
- Cc1ncccc1O[C@H]1CO[C@H]2[C@@H]1OC[C@@H]2NC(=O)NC(C)(C)c1ccc(F)cc1 [Example 204, 1-[1-(4-Fluoro-phenyl)-1-methyl-ethyl]-3-[(3S,3aR,6S,6aS)-6-(2-methyl-pyridin-3-yloxy)-hexahydro-furo[3,2-b]furan-3-yl]-urea] — 370-fold higher, 734 nM
- Cc1cccnc1CCNC(=O)N[C@H]1CO[C@H]2[C@@H]1OC[C@@H]2Oc1cccnc1C [Example 205, 1-[2-(3-Methyl-pyridin-2-yl)-ethyl]-3-[(3S,3aR,6S,6aS)-6-(2-methyl-pyridin-3-yloxy)-hexahydro-furo[3,2-b]furan-3-yl]-urea] — 260-fold higher, 528 nM
- Cc1ncccc1OC1COC2C(NC(=O)NCCc3ccccc3OC(F)(F)F)COC12 [Example 206, 1-[(3S,3aR,6S,6aS)-6-(2-Methyl-pyridin-3-yloxy)-hexahydro-furo[3,2-b]furan-3-yl]-3-[2-(2-trifluoro-methoxy-phenyl)-ethyl]-urea] — the same, 2 nM
- Cc1ncccc1O[C@H]1CO[C@H]2[C@@H]1OC[C@@H]2NC(=O)NC1CCOc2ccccc21 (stereo partly drawn) [Example 207, 1-Chroman-4-yl-3-[(3S,3aR,6S,6aS)-6-(2-methyl-pyridin-3-yloxy)-hexa-hydro-furo[3,2-b]furan-3-yl]-urea] — 1.5-fold higher, 3 nM
- Cc1ncccc1O[C@H]1CO[C@H]2[C@@H]1OC[C@@H]2NC(=O)NCc1ccc(Cl)s1 [Example 208, 1-(5-Chloro-thiophen-2-ylmethyl)-3-[(3S,3aR,6S,6aS)-6-(2-methyl-pyridin-3-yloxy)-hexahydro-furo[3,2-b]furan-3-yl]-urea] — 7.5-fold higher, 15 nM
- Cc1ncccc1O[C@H]1CO[C@H]2[C@@H]1OC[C@@H]2NC(=O)NCC1(C)CCCO1 (stereo partly drawn) [Example 209, 1-[(3S,3aR,6S,6aS)-6-(2-Methyl-pyridin-3-yloxy)-hexahydro-furo[3,2-b]furan-3-yl]-3-(2-methyl-tetrahydro-furan-2-ylmethyl)-urea] — 410-fold higher, 819 nM

Reference: patent publication US9540391B2, “Isomannide derivatives as inhibitors of soluble epoxide hydrolase” (SANOFI, priority 2013, dated 2017)
